In ChEMBL document CHEMBL1201862, “PubChem BioAssay data set” (2004):
Activity calls are given as the source filed them.

Key:
[1] = Luminescence-based cell-based high throughput dose response assay to identify activators of the DAF-12 from the parasite S. stercoralis (ssDAF-12).; format: functional
[2] = target: T1, Oxysterols receptor LXR-beta (Homo sapiens, UniProt P55055); test: LXR agonists, Gal4 luciferase reporter, dose response, counter-screen for ssDAF-12 agonist project, cell-based, luminescence, HEK293, S. stercoralis campaign (AID 720737); format: functional; settings: read-out: IC50 (the source's name)
T1 sequence (P55055 whole entry): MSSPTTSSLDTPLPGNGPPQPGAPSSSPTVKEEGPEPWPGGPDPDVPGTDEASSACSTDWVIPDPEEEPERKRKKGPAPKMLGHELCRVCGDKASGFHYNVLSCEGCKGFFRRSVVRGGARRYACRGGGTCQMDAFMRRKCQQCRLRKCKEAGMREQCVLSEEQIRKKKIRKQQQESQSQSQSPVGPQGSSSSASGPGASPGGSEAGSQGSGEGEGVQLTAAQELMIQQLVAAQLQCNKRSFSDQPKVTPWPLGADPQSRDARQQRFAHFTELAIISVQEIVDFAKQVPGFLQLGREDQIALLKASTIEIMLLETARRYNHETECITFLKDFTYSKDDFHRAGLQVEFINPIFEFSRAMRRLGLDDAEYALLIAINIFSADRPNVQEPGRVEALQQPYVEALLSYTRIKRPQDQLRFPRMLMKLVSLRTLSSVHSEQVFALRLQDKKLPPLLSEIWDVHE

[3] = tested on: P388/ADR; test: cells; format: functional; settings: Mus musculus
[4] = tested on: P388; test: cells; format: functional; settings: Mus musculus
[5] = tested on: SN12K1; test: cells; format: functional; settings: Homo sapiens
[6] = target: Paired box protein Pax-8 (Homo sapiens, UniProt Q06710); test: inhibitors of PAX8-driven TPO luciferase reporter, dose response, RMG-I cells, cherry-pick (AID 687027); format: functional, cell-based;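 also: luciferase reporter driven by Pax8 target thyroperoxidase promoter measured by SteadyGlo luminescence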
[7] = LGR2 antagonists, dose response, cell-based, HEK293, CRE-luciferase reporter, cherry pick, set 2 (AID 743343); format: functional;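 also: transfected cells were stimulated with diluted bursicon conditioned medium after compound addition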
[8] = HEK293 cell cytotoxicity, dose response, cytotoxicity control, plate reader, cherry-picked samples (AID 743446); format: functional, cell-based
[9] = MC4R antagonists, dose response, counter-screen for LGR2 antagonist project, cell-based, plate reader, cherry pick (AID 743444); format: functional;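 also: transfected HEK 293 cells stimulated with alpha-MSH peptide; potency of inhibitors of the alpha-MSH evoked signal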
[10] = HepG2 cell cytotoxicity, dose response, cytotoxicity control, plate reader, cherry-pick, antagonist series (AID 743416); format: functional, cell-based
[11] = A549 cell cytotoxicity, dose response, cytotoxicity control, plate reader, cherry-pick, antagonist series (AID 743412); format: functional, cell-based
[12] = microbe, parasite or virus in culture; format: functional; settings: Mycobacterium tuberculosis
[13] = target: T2, Ubiquitin-conjugating enzyme E2 N (Homo sapiens, UniProt P61088); format: functional;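 also: Dose-response confirmation in a TR-FRET assay detecting UBC13-driven polyubiquitin chain formation, inhibition measured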
T2 sequence (P61088 whole entry): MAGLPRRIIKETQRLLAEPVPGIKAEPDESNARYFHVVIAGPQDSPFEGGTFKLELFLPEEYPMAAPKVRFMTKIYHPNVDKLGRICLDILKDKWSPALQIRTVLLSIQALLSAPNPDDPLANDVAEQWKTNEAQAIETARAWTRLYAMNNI

[14] = target: T3, Sentrin-specific protease 7 (Homo sapiens, UniProt Q9BQF6); format: functional;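 also: Luminescence-based dose-response confirmation of ultra-high-throughput screening hits, measuring inhibition of SENP7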
T3 sequence (Q9BQF6 whole entry): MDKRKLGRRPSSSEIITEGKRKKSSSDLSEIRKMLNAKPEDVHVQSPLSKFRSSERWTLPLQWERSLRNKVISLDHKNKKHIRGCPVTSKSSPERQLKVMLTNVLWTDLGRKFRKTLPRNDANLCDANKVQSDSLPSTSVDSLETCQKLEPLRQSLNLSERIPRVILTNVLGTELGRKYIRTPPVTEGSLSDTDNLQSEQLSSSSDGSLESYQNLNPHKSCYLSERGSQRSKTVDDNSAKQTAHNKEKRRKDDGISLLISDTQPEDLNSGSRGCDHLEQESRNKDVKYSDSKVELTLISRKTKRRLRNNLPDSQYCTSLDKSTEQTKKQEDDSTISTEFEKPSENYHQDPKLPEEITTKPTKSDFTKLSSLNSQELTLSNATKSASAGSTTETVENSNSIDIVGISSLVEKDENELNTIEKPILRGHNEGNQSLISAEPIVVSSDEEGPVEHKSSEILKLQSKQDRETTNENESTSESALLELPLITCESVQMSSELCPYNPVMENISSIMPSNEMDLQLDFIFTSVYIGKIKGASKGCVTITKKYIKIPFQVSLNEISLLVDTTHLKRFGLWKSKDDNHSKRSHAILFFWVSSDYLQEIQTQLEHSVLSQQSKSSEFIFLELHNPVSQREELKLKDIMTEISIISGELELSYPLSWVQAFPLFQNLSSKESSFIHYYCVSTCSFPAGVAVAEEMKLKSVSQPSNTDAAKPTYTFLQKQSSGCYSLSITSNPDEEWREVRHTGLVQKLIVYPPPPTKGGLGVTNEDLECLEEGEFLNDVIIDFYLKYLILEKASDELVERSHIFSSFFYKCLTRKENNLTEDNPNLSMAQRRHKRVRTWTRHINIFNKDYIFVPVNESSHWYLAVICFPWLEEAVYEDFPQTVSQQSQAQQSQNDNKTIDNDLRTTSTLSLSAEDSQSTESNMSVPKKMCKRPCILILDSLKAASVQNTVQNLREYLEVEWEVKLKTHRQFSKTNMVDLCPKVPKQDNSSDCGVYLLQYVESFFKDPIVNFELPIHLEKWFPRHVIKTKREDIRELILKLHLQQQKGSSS

[15] = target: T4, Sentrin-specific protease 8 (Homo sapiens, UniProt Q96LD8); format: functional;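 also: luminescence read-out of SENP8 inhibition, dose-response confirmation following an ultra-high-throughput screen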
T4 sequence (Q96LD8 whole entry): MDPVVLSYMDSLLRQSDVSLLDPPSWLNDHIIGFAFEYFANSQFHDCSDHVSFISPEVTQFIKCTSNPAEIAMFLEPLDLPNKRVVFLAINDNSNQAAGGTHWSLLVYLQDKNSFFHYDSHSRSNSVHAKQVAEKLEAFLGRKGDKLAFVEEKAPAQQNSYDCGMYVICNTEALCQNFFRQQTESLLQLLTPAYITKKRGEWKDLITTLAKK

[16] = target: T5, Sentrin-specific protease 6 (Homo sapiens, UniProt Q9GZR1); format: functional;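 also: Luminescence-based dose-response confirmatory assay of SENP6 inhibition, following up an ultra-high-throughput screen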
T5 sequence (Q9GZR1 whole entry): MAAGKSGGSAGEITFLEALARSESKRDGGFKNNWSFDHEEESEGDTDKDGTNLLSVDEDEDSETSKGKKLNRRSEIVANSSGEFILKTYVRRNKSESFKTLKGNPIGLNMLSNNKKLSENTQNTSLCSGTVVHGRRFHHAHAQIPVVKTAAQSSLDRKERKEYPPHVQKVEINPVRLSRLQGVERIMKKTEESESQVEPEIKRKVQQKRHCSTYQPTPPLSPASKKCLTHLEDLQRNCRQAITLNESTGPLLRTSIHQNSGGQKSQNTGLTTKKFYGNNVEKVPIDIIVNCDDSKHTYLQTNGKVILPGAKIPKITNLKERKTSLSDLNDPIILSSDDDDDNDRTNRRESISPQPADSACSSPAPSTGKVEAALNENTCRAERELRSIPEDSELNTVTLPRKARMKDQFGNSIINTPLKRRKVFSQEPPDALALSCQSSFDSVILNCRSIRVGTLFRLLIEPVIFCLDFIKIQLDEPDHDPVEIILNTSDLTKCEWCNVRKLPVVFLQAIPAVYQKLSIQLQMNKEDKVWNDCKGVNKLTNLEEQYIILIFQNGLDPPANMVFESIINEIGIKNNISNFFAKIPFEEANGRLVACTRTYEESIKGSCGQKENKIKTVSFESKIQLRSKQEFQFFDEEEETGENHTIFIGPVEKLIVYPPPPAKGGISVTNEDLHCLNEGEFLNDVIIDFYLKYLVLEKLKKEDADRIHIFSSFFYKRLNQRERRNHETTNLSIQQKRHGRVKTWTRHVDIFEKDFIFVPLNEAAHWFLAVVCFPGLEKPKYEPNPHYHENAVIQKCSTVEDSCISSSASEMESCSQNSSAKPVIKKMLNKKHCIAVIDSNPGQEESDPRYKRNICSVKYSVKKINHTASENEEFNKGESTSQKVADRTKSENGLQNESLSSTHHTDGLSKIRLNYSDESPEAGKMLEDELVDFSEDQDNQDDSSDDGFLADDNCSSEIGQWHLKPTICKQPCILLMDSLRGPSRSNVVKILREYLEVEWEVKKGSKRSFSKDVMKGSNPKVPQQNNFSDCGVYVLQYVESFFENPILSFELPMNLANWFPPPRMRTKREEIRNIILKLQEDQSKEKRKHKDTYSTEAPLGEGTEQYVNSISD

[17] = target: T6, Caspase-3 (Homo sapiens, UniProt P42574); format: functional;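 also: Dose-response selectivity test against caspase-3 for candidate inhibitors of sentrin-specific proteases (SENPs)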
T6 sequence (P42574 whole entry): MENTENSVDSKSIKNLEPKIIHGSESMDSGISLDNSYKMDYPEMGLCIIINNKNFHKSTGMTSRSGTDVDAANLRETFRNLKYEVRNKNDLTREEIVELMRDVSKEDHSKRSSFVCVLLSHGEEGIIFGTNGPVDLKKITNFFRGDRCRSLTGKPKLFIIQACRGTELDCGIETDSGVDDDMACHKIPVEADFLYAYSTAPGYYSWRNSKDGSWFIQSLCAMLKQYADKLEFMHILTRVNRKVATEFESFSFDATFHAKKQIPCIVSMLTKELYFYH

[18] = HEK293T cytotoxicity, dose response, cytotoxicity control for miR-122 modulator project, cell-based, inhibitor set, cherry-pick, set 2 (AID 720697); format: functional
[19] = miR-122 activators in hepatoma reporter cells, dose response, cell-based, Huh7 psiCHECK-miR122, Renilla luciferase, cherry-picked (AID 651956); format: functional;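 also: huh7 hepatoma cells stably carrying a psiCHECK-2 miR-122 sensor plasmid; renilla luciferase signal reporting endogenous miR-122 activity after 48 h compound exposure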

Sequence of Paired box protein Pax-8 (Q06710 whole entry): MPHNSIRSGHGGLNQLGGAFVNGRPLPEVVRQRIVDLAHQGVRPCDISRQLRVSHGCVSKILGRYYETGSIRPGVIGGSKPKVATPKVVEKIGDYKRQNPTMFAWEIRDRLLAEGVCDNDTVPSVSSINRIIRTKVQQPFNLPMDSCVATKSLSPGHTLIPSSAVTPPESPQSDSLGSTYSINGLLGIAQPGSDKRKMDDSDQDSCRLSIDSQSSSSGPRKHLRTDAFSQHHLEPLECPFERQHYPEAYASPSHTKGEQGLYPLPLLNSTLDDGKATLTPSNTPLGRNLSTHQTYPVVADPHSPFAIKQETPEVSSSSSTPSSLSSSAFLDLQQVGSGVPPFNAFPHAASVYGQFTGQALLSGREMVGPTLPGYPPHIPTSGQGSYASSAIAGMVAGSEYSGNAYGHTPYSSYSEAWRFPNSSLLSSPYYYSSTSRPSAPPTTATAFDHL

SMILES: N#Cc1cc2ccccc2nc1SCc1ccccn1
- IC50 [1]: > 67.5 µM (inactive)
- EC50 [2]: > 67.5 µM (inactive)

SMILES: C=C1C(=O)OC2/C=C(\C)CC(O)/C=C(/CO)CC(OC(=O)/C(C)=C/C)C12 (stereo not drawn)
- GI50 [3]: 16.7 µM (inactive)
- GI50 [4]: 11.1 µM (inactive)
- GI50 [5]: 24.8 µM (inactive)

SMILES: C=C1[C@@H](C)[C@H]2[C@H](Cc3ccccc3)NC(=O)[C@]23OC(=O)/C=C/[C@H](O)CCC[C@@H](C)C/C=C/[C@H]3[C@@H]1O
- GI50 [3]: 15.3 µM (inactive)
- GI50 [4]: 12.4 µM (inactive)
- GI50 [5]: 0.31 µM (active)

SMILES: CNC(=O)OCc1nc([S+](C)[O-])n(C)c1COC(=O)NC (stereo not drawn)
- GI50 [3]: > 100 µM (inactive)
- GI50 [4]: > 100 µM (inactive)
- GI50 [5]: > 100 µM (inactive)

SMILES: COc1ccc(CC2C(=O)NC(C)C(=O)N(C)C3C(=O)N(C)C(Cc4ccc(O)c(c4)Oc4ccc(cc4)C3O)C(=O)NC(C)C(=O)NC(C)C(=O)N2C)cc1 (stereo not drawn)
- GI50 [3]: 2.26 µM (inactive)
- GI50 [4]: 0.00373 µM (active)
- AC50 [6]: < 0.26 µM (active)
- GI50 [5]: 0.00262 µM (active)

SMILES: COC(=O)c1ccccc1NC(=O)c1ccnn1C
- IC50 [1]: > 67.5 µM (inactive)
- EC50 [2]: > 67.5 µM (inactive)

SMILES: Ic1ccccc1CN[C@@H]1C2CCN(CC2)[C@@H]1C(c1ccccc1)c1ccccc1
- AC50 [7]: 18.1 µM (active)
- AC50 [8]: 13.9 µM (active)
- AC50 [9]: 21.6 µM (active)
- AC50 [10]: 8.05 µM (active)
- AC50 [11]: 7.99 µM (active)
- CC50 [12]: 12.6 µM (active)
- IC50 [13]: > 20 µM (inactive)

SMILES: O=C(CCNC(=O)c1ccccc1)N=Nc1c(O)[nH]c2ccccc12
- IC50 [1]: > 67.5 µM (inactive)
- EC50 [2]: > 67.5 µM (inactive)

SMILES: Cc1cn([C@H]2C[C@H](N=[N+]=[N-])[C@@H](CO)O2)c(=O)[nH]c1=O [ZIDOVUDINE]
- GI50 [3]: > 100 µM (inactive)
- GI50 [4]: 99.3 µM (inactive)
- GI50 [5]: > 100 µM (inactive)

SMILES: O=C(Nc1ccc2c(c1)CCC2)c1ccc(Br)s1
- IC50 [14]: 3.4 µM (active)
- IC50 [15]: 4.31 µM (active)
- IC50 [16]: 5.03 µM (active)
- IC50 [17]: 17.5 µM (active)

SMILES: Cc1ccc(/C=N/OC(=O)c2nn(C)cc2Cl)cc1
- IC50 [14]: 13 µM (active)
- IC50 [15]: 54.7 µM (active)
- IC50 [16]: 39 µM (active)
- IC50 [17]: 24 µM (active)

SMILES: COc1cccc(-c2nnc(-c3ccccc3[N+](=O)[O-])o2)c1
- IC50 [14]: 10.4 µM (active)
- IC50 [15]: > 100 µM (inactive)
- IC50 [16]: > 100 µM (inactive)
- IC50 [17]: 19.1 µM (active)

SMILES: C[C@@H]1CN([C@@H](C)CO)C(=O)c2cc(NS(=O)(=O)c3ccc(F)cc3)ccc2O[C@@H]1CN(C)Cc1ccc(-c2ccccc2)cc1
- AC50 [18]: < 0.195 µM (active)
- AC50 [19]: 17.7 µM (active)

SMILES: CCc1ccc2cc3c(cc2n1)C(=O)c1ccccc1-3
- IC50 [1]: > 67.5 µM (inactive)
- EC50 [2]: > 67.5 µM (inactive)

SMILES: C=C1C(=O)O[C@H]2C1[C@H](OC(=O)/C(C)=C\COC(C)=O)C[C@]1(CO1)[C@@H]1[C@H](O)[C@H]3O[C@@]3(C)[C@@H]12 (stereo partly drawn)
- GI50 [3]: 8.13 µM (inactive)
- GI50 [4]: 3.4 µM (inactive)
- GI50 [5]: 24.8 µM (inactive)
